Measurements reported in patent US20220378773A1, “METHODS FOR TREATING LEUKEMIA AND USE OF A LEUKEMIC STEM CELL SIGNATURE TO PREDICT CLINICAL SENSITIVITY TO THERAPIES” (CELGENE CORPORATION, priority 2019, published 2022).

Legend:
[1] = system: colony forming leukemia progenitors; assay: Acute myeloid leukemia colony forming unit (AML-CFU) assay; format: cell-based, human
Protocol: For the AML-colony forming unit (CFU) assay, 0.9% methylcellulose semi-solid culture was used, containing 15% fetal calf serum (FCS), 15% pretested human plasma, 50 μM β mercaptoethanol, and cytokines at concentrations of 100 ng/mL stem cell factor, 100 ng/mL Flt-3 ligand, 20 ng/mL IL-6, 20 ng/mL GM-CSF, 20 ng/mL IL-3, and 3 U/mL of erythropoietin (Amgen, USA).
Cell Culture: Acute myeloid leukemia cells were plated in 0.9% methylcellulose containing 15% FCS, 15% pretested human plasma, 50 μM β-mercaptoethanol, and cytokines at concentrations of 100 ng/mL stem cell factor, 100 ng/mL Flt-3 ligand, 20 ng/mL IL-6, 20 ng/mL GM-CSF, 20 ng/mL IL-3 and 3 U/mL of erythropoietin (Amgen, USA). Acute myeloid leukemia cells were cultured with DMSO or Compound D (prepared as described below) during suspension and CFU assays.
Assay Procedure: After the AML cultures were incubated with DMSO or Compound D for 12 to 14 days at 37° C., plates were assigned scores for the presence of AML-CFU (CFU defined as >50 cells).
Colony assays were performed in semisolid culture supplemented with growth factors, in the presence of Compound D, or DMSO for control. Colonies were counted at Day 14.

AML graft = assay: In vivo apoptosis and cell death (propidium iodide staining); design: species or system NOD/SCID mice; conditions: after 4 weeks treatment
From the text: After treatment finished, cells were harvested from both injected right femur (RF) and non-injected bone marrow (BM, including left femur, 2 tibias), and stained with human antibodies to assess the engraftment levels of AML. Antibodies used for staining included: Mouse anti-human CD45-APC, CD15-FITC, CD34-APC7, CD38-PC7 (BD Biosciences, USA), CD14-PE, CD33-PC5 (Beckman Coulter, USA), CD19-V450, CD19-AF700, CD11b-APC7, CD34-BV421 (BD Biosciences, USA), and propidium iodide (PI; Invitrogen, USA).
Following 4 weeks Compound D treatment, harvested cells were stained with propidium iodide (PI) for detecting apoptotic and dead leukemia cells. […] To determine whether GSPT1 can also be degraded by Compound D administration in vivo, leukemia cells were harvested after 3 doses of Compound D treatment for intracellular flow cytometry to assess the levels of GSPT1 in both injected RF and non-injected BM. […] It seems that Compound D degraded GSPT1 more profoundly in the injected RF than in non-injected BM. More samples had lesser GSPT1 reduction in the non-injected BM than in RF. Perhaps this reflects differences in the niche or blood supply between these sites; intrafemoral (IF) injection involves reaming out the femoral cavity prior to cell injection. […]

[2] = system: AML graft (human CD45+CD33+ cells); assay: AML xenograft efficacy, 2.5 mg/kg IP twice daily; format: in vivo, NOD/SCID mice; conditions: AML Patient 90668; 500,000 cells per mouse; dosing from Day 21
GSPT1 = target: T1, GSPT1 (Homo sapiens, UniProt P15170+Q96SW2); assay: In vivo GSPT1 expression in xenograft AML model (intracellular FACS); design: species or system mice
T1 construct: endogenous in cells; host or cells: primary AML patient cells (peripheral blood mononuclear cells) in short-term suspension culture
T1 sequence (P15170 whole entry): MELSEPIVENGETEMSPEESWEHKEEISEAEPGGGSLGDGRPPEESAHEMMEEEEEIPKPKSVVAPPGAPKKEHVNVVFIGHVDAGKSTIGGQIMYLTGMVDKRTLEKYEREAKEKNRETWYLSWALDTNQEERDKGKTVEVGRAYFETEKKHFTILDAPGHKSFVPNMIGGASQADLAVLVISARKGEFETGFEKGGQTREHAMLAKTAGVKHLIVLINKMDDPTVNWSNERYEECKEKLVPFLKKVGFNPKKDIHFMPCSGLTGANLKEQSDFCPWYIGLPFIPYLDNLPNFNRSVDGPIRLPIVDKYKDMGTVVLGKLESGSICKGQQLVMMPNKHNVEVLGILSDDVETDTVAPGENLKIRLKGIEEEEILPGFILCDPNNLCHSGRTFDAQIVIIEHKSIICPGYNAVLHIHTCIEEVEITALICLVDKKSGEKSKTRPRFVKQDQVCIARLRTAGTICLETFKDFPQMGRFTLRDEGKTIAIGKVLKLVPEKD
T1 sequence (Q96SW2 whole entry): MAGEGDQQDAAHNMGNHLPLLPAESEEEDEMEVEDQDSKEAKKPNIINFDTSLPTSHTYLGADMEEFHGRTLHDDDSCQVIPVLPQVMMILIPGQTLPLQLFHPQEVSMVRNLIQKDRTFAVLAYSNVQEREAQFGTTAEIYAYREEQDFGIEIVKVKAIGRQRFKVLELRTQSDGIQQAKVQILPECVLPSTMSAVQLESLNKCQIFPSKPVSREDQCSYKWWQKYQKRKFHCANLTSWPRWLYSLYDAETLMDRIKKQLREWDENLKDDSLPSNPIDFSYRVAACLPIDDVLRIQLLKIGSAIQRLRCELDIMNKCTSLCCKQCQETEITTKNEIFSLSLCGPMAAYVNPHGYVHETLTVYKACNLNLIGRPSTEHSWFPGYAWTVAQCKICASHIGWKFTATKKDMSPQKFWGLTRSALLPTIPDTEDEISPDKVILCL
T1 sequence (Q16531 whole entry partner): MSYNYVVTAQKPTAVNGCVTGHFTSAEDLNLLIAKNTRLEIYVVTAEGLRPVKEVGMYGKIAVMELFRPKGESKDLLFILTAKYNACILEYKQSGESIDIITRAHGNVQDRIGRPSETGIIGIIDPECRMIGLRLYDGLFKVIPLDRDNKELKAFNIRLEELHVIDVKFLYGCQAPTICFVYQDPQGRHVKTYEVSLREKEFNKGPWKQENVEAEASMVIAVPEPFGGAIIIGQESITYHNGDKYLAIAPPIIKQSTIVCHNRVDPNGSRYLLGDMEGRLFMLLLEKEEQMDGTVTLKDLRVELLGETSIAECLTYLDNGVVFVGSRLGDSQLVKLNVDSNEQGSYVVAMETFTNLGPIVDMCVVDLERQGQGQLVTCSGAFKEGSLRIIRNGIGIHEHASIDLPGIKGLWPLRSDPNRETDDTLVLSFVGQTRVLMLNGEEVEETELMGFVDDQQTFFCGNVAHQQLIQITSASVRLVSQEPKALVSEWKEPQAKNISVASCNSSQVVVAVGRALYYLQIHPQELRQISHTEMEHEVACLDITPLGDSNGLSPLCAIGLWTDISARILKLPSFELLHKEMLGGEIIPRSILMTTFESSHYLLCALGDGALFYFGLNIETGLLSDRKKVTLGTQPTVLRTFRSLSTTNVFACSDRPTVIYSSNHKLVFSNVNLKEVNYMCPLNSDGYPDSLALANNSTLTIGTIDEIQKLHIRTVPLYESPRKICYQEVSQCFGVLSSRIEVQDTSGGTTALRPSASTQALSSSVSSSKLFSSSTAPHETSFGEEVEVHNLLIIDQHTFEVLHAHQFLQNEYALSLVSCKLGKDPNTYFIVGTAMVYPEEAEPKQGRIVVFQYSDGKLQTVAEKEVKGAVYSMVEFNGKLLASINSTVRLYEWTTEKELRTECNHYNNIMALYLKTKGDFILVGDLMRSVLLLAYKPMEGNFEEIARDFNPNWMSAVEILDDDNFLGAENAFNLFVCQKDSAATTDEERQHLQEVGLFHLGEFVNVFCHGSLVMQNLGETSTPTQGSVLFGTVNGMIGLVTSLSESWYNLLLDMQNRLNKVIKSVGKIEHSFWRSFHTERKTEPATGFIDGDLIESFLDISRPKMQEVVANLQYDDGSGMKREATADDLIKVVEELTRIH
Protocol: After 4 weeks of transplantation with AML cells, mice were treated with Compound D at 2.5 mg/kg twice a day for 3 doses totally. Four hours after the last treatment, cells were harvested from both injected RF and non-injected BM of each mouse and were stained with CD45-FITC (BD Biosciences, USA), fixed and permeabilized. Cells were then stained with GSPT1-Alexa Fluor 647 for intracellular FACS to detect the expression of GSPT1 in engrafted leukemic cells.

O=C1CCC(N2Cc3cc(CNC(=O)C(F)(F)c4ccc(Cl)cc4)ccc3C2=O)C(=O)N1 (centres unmarked) [Compound D, 2-(4-chlorophenyl)-N-((2-(2,6-dioxopiperidin-3-yl)-1-oxoisoindolin-5-yl)methyl)-2,2-difluoroacetamide]
colony formation, high vs low LSC17 score samples ([1]; 3 high and 3 low LSC17 samples): reduced colony formation of the samples with high LSC17 scores more than the samples with low LSC17 samples | colony formation ([1]; 7 samples that formed colonies, increasing concentration): all 7 samples had reduced colony formation | colony forming leukemia progenitors ([1]; Section 6.3 samples): inhibited colony forming leukemia progenitors | number of PI+ events in mouse bone marrow (AML graft): significantly increased | survival [2]: did not improve survival | levels of GSPT1 in engrafted leukemia cells (GSPT1; 2.5 mg/kg twice a day, 3 doses, 17 samples): decreased in RF or BM, or in both RF and BM in the majority of 17 samples tested | GSPT1 reduction (GSPT1; Pt120287 and 110555): clear GSPT1 reduction in both RF and BM | GSPT1 reduction (GSPT1; Pt130607 and 150250): did not show dramatic GSPT1 reduction
